Data taken from ChEMBL document CHEMBL4507299, “Data for DCP probe PF-04554878” (2021).

Experiments:
[1] = target: Tyrosine-protein kinase BTK (Homo sapiens) (UniProt Q06187)
[2] = target: Myotonin-protein kinase (Homo sapiens) (UniProt Q09013)
[3] = target: RAC-alpha serine/threonine-protein kinase (Homo sapiens) (UniProt P31749)
[4] = tested on: Mast/stem cell growth factor receptor Kit (Homo sapiens), P10721 [V559D,V654A]
[5] = target: STE20-like serine/threonine-protein kinase (Homo sapiens) (UniProt Q9H2G2)
[6] = tested on: Receptor-type tyrosine-protein kinase FLT3 (Homo sapiens), P36888 [R834Q]
[7] = target: Tyrosine-protein kinase Fyn (Homo sapiens) (UniProt P06241)
[8] = target: Tyrosine-protein kinase Fgr (Homo sapiens) (UniProt P09769)
Sequence of Tyrosine-protein kinase Fgr (Homo sapiens) (P09769 2-529 limits assumed): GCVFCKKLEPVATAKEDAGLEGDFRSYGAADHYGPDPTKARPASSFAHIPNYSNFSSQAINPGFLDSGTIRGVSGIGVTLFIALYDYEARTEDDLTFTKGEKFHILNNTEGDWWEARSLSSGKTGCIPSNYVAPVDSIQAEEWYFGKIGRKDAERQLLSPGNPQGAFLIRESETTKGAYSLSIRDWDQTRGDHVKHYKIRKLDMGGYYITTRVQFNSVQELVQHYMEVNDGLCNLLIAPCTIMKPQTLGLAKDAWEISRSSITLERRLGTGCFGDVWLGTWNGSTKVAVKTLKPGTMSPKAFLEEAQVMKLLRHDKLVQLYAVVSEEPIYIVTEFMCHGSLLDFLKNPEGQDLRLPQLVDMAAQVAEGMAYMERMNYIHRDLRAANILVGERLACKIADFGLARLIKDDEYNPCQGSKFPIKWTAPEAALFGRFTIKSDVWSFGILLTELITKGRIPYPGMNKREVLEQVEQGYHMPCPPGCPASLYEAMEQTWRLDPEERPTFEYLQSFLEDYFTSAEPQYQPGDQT

[9] = target: Tyrosine-protein kinase JAK1 (Homo sapiens) (UniProt P23458)
[10] = target: Rhodopsin kinase GRK7 (Homo sapiens) (UniProt Q8WTQ7)
[11] = target: Mast/stem cell growth factor receptor Kit (Homo sapiens) (UniProt P10721)
Sequence of Mast/stem cell growth factor receptor Kit (Homo sapiens) (P10721 whole entry): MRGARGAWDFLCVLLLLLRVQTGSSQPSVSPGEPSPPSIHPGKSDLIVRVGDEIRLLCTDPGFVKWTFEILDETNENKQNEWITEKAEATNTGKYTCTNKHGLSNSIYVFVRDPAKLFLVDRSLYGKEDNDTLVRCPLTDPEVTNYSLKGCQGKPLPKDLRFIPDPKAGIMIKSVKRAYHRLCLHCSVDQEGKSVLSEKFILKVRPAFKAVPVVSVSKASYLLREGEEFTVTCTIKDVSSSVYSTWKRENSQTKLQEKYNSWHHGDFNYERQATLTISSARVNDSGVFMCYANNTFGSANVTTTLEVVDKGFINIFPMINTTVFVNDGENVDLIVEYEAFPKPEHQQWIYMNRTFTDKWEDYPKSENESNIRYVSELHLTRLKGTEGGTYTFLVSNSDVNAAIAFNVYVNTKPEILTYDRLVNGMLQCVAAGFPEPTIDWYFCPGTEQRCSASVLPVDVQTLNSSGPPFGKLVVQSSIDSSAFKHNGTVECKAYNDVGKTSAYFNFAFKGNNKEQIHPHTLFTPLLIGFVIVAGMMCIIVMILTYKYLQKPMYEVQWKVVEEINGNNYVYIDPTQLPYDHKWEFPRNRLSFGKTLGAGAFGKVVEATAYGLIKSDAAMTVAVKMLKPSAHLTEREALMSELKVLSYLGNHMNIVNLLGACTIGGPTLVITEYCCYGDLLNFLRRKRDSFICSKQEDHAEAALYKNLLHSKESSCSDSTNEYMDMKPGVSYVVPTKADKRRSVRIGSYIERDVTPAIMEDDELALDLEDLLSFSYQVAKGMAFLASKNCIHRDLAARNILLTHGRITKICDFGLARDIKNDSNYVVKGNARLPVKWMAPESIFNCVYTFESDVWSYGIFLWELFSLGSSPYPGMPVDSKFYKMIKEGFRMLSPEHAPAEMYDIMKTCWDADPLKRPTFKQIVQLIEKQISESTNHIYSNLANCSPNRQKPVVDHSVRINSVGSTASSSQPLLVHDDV

[12] = target: Serine/threonine-protein kinase SIK3 (Homo sapiens) (UniProt Q9Y2K2)
[13] = target: Mitogen-activated protein kinase kinase kinase kinase 4 (Homo sapiens) (UniProt O95819)
Sequence of Mitogen-activated protein kinase kinase kinase kinase 4 (Homo sapiens) (O95819 2-1239 limits assumed): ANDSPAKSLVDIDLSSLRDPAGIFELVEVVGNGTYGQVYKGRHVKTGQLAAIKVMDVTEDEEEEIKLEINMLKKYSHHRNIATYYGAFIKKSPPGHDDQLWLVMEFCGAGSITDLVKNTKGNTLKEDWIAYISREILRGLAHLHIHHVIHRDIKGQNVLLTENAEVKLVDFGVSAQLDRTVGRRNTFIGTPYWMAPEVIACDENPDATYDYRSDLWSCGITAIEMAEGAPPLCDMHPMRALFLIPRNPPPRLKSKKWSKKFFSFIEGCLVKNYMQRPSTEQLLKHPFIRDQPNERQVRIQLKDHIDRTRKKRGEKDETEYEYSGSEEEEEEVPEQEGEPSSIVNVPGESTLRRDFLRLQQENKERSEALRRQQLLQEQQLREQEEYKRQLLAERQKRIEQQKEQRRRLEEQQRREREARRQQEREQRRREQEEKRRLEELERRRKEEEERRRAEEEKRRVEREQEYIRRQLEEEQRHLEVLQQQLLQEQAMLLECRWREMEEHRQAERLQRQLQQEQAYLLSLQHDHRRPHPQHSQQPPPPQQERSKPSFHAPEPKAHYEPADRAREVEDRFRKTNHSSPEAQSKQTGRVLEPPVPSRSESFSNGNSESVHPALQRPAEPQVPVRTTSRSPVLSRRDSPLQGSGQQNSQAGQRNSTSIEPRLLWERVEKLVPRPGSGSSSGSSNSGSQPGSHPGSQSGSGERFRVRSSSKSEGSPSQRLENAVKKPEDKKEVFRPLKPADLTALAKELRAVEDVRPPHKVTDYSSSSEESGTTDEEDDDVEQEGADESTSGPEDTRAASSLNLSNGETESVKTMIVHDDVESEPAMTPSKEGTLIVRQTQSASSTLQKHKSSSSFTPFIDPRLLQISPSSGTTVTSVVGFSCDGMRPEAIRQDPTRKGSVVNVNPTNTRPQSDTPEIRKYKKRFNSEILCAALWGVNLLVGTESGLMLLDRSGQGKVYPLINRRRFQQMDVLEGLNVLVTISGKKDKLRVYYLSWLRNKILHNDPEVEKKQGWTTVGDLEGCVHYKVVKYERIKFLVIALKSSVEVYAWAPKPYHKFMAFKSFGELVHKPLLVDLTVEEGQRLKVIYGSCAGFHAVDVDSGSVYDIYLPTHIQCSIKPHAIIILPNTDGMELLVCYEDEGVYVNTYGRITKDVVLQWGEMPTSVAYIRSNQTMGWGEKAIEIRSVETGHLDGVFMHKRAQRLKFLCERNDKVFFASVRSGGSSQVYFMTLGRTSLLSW

[14] = target: Ephrin type-A receptor 6 (Homo sapiens) (UniProt Q9UF33)
[15] = target: Serine/threonine-protein kinase WNK3 (Homo sapiens) (UniProt Q9BYP7)
[16] = target: Phosphatidylinositol 3-kinase catalytic subunit type 3 (Homo sapiens) (UniProt Q8NEB9)
[17] = target: 5'-AMP-activated protein kinase catalytic subunit alpha-1 (Homo sapiens) (UniProt Q13131)
[18] = target: Cyclin-dependent kinase 15 (Homo sapiens) (UniProt Q96Q40)
[19] = target: NUAK family SNF1-like kinase 1 (Homo sapiens) (UniProt O60285)
[20] = target: Proto-oncogene tyrosine-protein kinase Src (Homo sapiens, UniProt P12931)
[21] = target: Calcium/calmodulin-dependent protein kinase type II subunit alpha (Homo sapiens) (UniProt Q9UQM7)
Sequence of Calcium/calmodulin-dependent protein kinase type II subunit alpha (Homo sapiens) (Q9UQM7 whole entry): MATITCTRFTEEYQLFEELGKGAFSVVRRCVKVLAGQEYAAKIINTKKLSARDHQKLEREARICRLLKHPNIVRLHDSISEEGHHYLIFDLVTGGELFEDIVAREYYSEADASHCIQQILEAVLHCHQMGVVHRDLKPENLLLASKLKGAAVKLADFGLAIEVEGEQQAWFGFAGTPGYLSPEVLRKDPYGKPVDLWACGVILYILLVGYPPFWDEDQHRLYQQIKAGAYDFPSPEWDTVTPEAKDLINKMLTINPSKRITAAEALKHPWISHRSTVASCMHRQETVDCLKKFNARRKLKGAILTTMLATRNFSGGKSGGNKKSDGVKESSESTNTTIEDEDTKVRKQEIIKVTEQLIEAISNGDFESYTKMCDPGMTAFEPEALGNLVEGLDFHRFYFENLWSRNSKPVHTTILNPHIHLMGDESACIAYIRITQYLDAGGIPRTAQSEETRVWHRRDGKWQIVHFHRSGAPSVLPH

[22] = target: Non-receptor tyrosine-protein kinase TYK2 (Homo sapiens) (UniProt P29597)
[23] = target: 5'-AMP-activated protein kinase catalytic subunit alpha-2 (Homo sapiens) (UniProt P54646)
[24] = target: Non-receptor tyrosine-protein kinase TNK1 (Homo sapiens) (UniProt Q13470)
[25] = tested on: Serine/threonine-protein kinase B-raf (Homo sapiens), P15056 [V600E]
[26] = target: 5-hydroxytryptamine receptor 2A (Homo sapiens) (UniProt P28223); conditions: Compound concentration 10.0 uM
Sequence of 5-hydroxytryptamine receptor 2A (Homo sapiens) (P28223 whole entry): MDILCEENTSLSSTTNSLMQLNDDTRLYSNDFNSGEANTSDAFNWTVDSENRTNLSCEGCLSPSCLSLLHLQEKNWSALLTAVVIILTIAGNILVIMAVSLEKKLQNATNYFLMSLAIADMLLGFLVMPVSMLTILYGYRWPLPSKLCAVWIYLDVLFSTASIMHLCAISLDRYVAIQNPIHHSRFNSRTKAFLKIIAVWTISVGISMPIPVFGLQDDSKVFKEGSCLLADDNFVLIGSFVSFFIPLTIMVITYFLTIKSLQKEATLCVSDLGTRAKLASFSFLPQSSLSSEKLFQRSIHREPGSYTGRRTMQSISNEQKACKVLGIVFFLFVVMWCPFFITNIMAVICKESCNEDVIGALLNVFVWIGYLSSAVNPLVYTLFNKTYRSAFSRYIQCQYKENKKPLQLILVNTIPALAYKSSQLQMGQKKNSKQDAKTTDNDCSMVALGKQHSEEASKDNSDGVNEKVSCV

[27] = target: Phosphatidylinositol 4-phosphate 5-kinase type-1 gamma (Homo sapiens) (UniProt O60331)
[28] = target: Serine/threonine-protein kinase haspin (Homo sapiens) (UniProt Q8TF76)
[29] = target: Myosin-IIIb (Homo sapiens) (UniProt Q8WXR4)
[30] = target: TGF-beta receptor type-1 (Homo sapiens) (UniProt P36897)
Sequence of TGF-beta receptor type-1 (Homo sapiens) (P36897 whole entry): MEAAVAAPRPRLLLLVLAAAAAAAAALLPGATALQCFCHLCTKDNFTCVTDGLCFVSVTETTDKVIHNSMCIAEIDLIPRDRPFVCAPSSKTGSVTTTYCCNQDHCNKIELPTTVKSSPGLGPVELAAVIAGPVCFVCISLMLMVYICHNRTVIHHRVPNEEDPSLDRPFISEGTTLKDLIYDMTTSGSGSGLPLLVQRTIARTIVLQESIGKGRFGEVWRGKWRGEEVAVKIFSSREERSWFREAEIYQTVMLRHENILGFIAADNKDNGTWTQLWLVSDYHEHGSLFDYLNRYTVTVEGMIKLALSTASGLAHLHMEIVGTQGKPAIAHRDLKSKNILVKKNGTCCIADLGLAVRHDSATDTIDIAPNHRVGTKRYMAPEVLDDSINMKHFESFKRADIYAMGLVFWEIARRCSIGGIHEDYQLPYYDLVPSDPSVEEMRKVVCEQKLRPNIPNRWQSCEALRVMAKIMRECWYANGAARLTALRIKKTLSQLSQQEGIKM

Focal adhesion kinase 1 = Focal adhesion kinase 1 (Homo sapiens, UniProt Q05397)
[31] = target: Cyclin-dependent kinase 4 (Homo sapiens) (UniProt P11802)
[32] = target: Mitogen-activated protein kinase kinase kinase 10 (Homo sapiens) (UniProt Q02779)
[33] = target: Bone morphogenetic protein receptor type-2 (Homo sapiens) (UniProt Q13873)
[34] = target: Ephrin type-A receptor 5 (Homo sapiens) (UniProt P54756)
[35] = tested on: Epidermal growth factor receptor (Homo sapiens), P00533 [L858R,T790M]
[36] = target: Receptor-interacting serine/threonine-protein kinase 4 (Homo sapiens) (UniProt P57078)
[37] = target: GABA-A receptor; anion channel (Rattus norvegicus) (UniProt O09028+P15431+P18506+P18508+P19969+P20236+P23574+P23576+P28471+P28473+P30191+P62813+P63079+P63138+Q91ZM7+Q9ES14); conditions: Compound concentration 10.0 uM
[38] = target: Interleukin-1 receptor-associated kinase 3 (Homo sapiens) (UniProt Q9Y616)
[39] = target: Mitogen-activated protein kinase kinase kinase 9 (Homo sapiens, UniProt P80192)
[40] = tested on: Tyrosine-protein kinase ABL1 (Homo sapiens), P00519 [F317L]
[41] = target: Tyrosine-protein kinase JAK2 (Homo sapiens) (UniProt O60674)
[42] = target: MAP/microtubule affinity-regulating kinase 4 (Homo sapiens) (UniProt Q96L34)
[43] = target: Fibroblast growth factor receptor 1 (Homo sapiens) (UniProt P11362)
[44] = Compound concentration 100.0 nM
[45] = Compound concentration 1000.0 nM

Sequence of Tyrosine-protein kinase BTK (Homo sapiens) (Q06187 whole entry): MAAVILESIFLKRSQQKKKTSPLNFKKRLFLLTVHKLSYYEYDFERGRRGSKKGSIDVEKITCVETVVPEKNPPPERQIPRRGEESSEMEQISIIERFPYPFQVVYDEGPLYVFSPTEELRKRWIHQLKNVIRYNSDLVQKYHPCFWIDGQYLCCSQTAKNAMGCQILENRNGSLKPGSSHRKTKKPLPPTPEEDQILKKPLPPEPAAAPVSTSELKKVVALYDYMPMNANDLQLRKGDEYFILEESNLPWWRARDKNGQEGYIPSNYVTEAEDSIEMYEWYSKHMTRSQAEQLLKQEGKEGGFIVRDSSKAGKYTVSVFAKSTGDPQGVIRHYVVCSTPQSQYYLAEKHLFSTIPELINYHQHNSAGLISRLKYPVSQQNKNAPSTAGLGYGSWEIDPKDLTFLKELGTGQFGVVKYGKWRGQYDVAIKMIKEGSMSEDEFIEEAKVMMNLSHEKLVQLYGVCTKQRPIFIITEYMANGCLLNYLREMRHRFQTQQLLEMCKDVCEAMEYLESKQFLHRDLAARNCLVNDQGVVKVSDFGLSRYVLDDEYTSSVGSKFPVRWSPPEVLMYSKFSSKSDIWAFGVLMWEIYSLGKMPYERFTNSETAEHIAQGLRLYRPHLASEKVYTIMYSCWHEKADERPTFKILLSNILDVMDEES
Sequence of Mast/stem cell growth factor receptor Kit (Homo sapiens), P10721 [V559D,V654A] (P10721 whole entry V559D/V654A): as the sequence (P10721 whole entry) above, with V559D, V654A counted along it

CNC(=O)c1ccc(Nc2ncc(C(F)(F)F)c(NCc3nccnc3N(C)S(C)(=O)=O)n2)cc1 [DEFACTINIB]
active: residual activity [2, 44] 16% | residual activity [9, 44] 29% | residual activity [19, 44] 31% | residual activity (Focal adhesion kinase 1; [44]) 0.2% | residual activity [39, 44] 44% | residual activity [41, 44] 4.8%
inactive: residual activity [1, 44] 83% | residual activity [3, 44] 100% | residual activity [4, 44] 100% | residual activity [5, 44] 53% | residual activity [6, 44] 64% | residual activity [7, 44] 100% | residual activity [8, 44] 81% | residual activity [10, 44] 97% | residual activity [11, 44] 84% | residual activity [12, 44] 82% | residual activity [13, 44] 98% | residual activity [14, 44] 85% | residual activity [15, 44] 100% | residual activity [16, 44] 100% | residual activity [17, 44] 84% | residual activity [18, 44] 67% | residual activity [20, 44] 79% | residual activity [21, 44] 83% | residual activity [22, 44] 87% | residual activity [23, 44] 100% | residual activity [24, 44] 100% | residual activity [25, 44] 100% | inhibition [26] 0.93% | residual activity [27, 44] 100% | residual activity [28, 44] 100% | residual activity [29, 44] 100% | residual activity [30, 44] 87% | residual activity [31, 44] 100% | residual activity [32, 44] 68% | residual activity [33, 44] 91% | residual activity [34, 44] 64% | residual activity [35, 44] 91% | residual activity [36, 44] 89% | inhibition [37] -7.85% | residual activity [38, 44] 70% | residual activity [40, 44] 93% | residual activity [42, 44] 83% | residual activity [43, 44] 89%

CN(c1ccnc(CNc2nc(Nc3ccc4c(c3)CC(=O)N4)ncc2C(F)(F)F)n1)S(C)(=O)=O [PF-00911705]
inactive: residual activity [1, 45] 63% | residual activity [3, 45] 100% | residual activity [4, 45] 67% | residual activity [7, 45] 59% | residual activity [8, 45] 58% | residual activity [11, 45] 85% | residual activity [12, 45] 82% | residual activity [13, 45] 82% | residual activity [14, 45] 85% | residual activity [15, 45] 79% | residual activity [16, 45] 84% | residual activity [17, 45] 80% | residual activity [18, 45] 63% | residual activity [20, 45] 60% | residual activity [21, 45] 67% | residual activity [22, 45] 59% | residual activity [23, 45] 87% | residual activity [24, 45] 65% | residual activity [25, 45] 68% | inhibition [26] 4.75% | residual activity [27, 45] 91% | residual activity [28, 45] 76% | residual activity [29, 45] 68% | residual activity [31, 45] 93% | residual activity [33, 45] 60% | residual activity [34, 45] 82% | residual activity [35, 45] 56% | inhibition [37] 29.5% | residual activity [40, 45] 84% | residual activity [42, 45] 63% | residual activity [43, 45] 82%
active: residual activity [2, 45] 23% | residual activity [5, 45] 41% | residual activity [6, 45] 30% | residual activity [9, 45] 20% | residual activity [10, 45] 29% | residual activity [19, 45] 21% | residual activity [30, 45] 44% | residual activity (Focal adhesion kinase 1; [45]) 4.9% | residual activity [32, 45] 49% | residual activity [36, 45] 6% | residual activity [38, 45] 11% | residual activity [39, 45] 41% | residual activity [41, 45] 3.8%
